# Measurements taken from ChEMBL document CHEMBL3414440, “Pure enantiomers of benzoylamino-tranylcypromine: LSD1 inhibition, gene modulation in human leukemia cells and effects on clonogenic potential of murine promyelocytic blasts” (Eur J Med Chem, 2015).
# Tests used:
# [1] = cells; conditions: Mus musculus, Leukemia cell, read-out: INH
# Description: Inhibition of colony formation in mouse acute myeloid Leukemia cell assessed as colony forming unit at 0.25 uM after 7 days relative to control
# [2] = target: T1, Amine oxidase [flavin-containing] A (Homo sapiens, UniProt P21397)
# T1 sequence (P21397 whole entry): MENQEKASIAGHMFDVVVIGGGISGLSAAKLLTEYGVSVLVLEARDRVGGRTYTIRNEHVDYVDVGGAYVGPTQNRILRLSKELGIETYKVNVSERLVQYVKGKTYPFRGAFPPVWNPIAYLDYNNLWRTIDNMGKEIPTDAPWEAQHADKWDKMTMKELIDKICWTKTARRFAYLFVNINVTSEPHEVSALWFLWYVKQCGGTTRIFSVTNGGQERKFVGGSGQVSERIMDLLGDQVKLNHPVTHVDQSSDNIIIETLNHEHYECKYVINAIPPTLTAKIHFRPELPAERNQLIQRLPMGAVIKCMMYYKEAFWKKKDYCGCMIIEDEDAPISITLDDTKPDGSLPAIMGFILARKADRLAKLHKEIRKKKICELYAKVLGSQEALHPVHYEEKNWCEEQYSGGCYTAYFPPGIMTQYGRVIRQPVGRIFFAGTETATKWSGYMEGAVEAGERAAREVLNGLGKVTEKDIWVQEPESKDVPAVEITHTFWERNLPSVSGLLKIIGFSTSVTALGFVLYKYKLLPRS
# Description: Inhibition of human recombinant MAOA expressed in Pichia pastoris incubated for 15 mins prior to substrate addition measured after 30 mins by luminescence assay
# [3] = target: T2, MAO-B (amine oxidase [flavin-containing] B) (Homo sapiens, UniProt P27338); experiment: Inhibition of human recombinant MAOB expressed in Pichia pastoris at 100 uM incubated for 15 mins prior to substrate addition measured after 30 mins by luminescence assay
# T2 sequence (P27338 whole entry): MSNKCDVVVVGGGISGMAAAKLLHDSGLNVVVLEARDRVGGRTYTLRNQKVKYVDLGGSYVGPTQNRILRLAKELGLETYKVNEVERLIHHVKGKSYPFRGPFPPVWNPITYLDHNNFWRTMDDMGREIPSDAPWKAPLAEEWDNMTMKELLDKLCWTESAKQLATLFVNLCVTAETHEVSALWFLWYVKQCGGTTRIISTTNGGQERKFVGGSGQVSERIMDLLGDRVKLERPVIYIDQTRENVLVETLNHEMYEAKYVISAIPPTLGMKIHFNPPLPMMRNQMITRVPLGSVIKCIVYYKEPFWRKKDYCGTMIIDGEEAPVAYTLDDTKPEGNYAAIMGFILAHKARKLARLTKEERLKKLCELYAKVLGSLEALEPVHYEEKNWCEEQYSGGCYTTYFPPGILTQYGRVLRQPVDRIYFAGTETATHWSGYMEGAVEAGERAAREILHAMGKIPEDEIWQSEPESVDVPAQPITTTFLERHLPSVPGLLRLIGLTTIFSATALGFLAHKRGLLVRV
# [4] = target: T3, Amine oxidase [flavin-containing] B (Homo sapiens, UniProt P27338)
# T3 sequence (P27338 whole entry): T2 sequence (P27338 whole entry)
# Description: Inhibition of human recombinant MAOB expressed in Pichia pastoris incubated for 15 mins prior to substrate addition measured after 30 mins by luminescence assay
SMILES,inhibition at […] [1] [%],IC50 [2] [nM],"inhibition at 0.5 h, 100 µM [3] [%]",IC50 [4] [nM]
N[C@H]1C[C@@H]1c1ccc(NC(=O)c2ccccc2)cc1,64,,,
N[C@@H]1C[C@H]1c1ccc(NC(=O)c2ccccc2)cc1,83.4,,,
N[C@H]1C[C@@H]1c1cccc(NC(=O)c2ccccc2)c1,,1370,29,
N[C@@H]1C[C@H]1c1cccc(NC(=O)c2ccccc2)c1,,1540,,84700
N[C@@H]1C[C@@H]1c1ccc(NC(=O)c2ccccc2)cc1,72,,,
N[C@H]1C[C@H]1c1ccc(NC(=O)c2ccccc2)cc1,83.8,,,
N[C@@H]1C[C@@H]1c1cccc(NC(=O)c2ccccc2)c1,,650,34,
N[C@H]1C[C@H]1c1cccc(NC(=O)c2ccccc2)c1,,70,,80100
